According to patent publication US12685708B2, “Skin care composition” (BEIERSDORF AG, priority 2019, dated 2026):

How the values were obtained:
Format in all cases: cell-based, Cutibacterium acnes
[1] = system: C. acnes strain C3; assay: Evaluation of the minimum inhibitory concentration (MIC) of cosmetic excipients; details: % w/vol, incubated anaerobically 3 days at 37° C., scored for growth or complete growth inhibition
Protocol: (§1) In microbiology, the MIC is the lowest concentration of a chemical which prevents visible growth of bacterium. The resulted MIC value depends both on the microorganism and the test compound. The MIC is determined by preparing concentrations series of the test compound in vitro, incubating the solutions with the separate batches of cultured bacteria, and measuring the results using agar dilution or broth microdilution. For the experiments with C. acnes strains C3 and K8, media comprising yeast extract soy peptone and dextrose were used. The MIC is determined by turbidity.
(§2) A total of 125 cosmetic excipients were tested for their compatibility with C. acnes strains C3 and K8. Hydrophilic compounds were tested in a 96-well plate liquid broth format, poorly soluble compounds were pre-dissolved in DMSO before dilution in liquid broth and hydrophobic or solid compounds were tested in an agar well diffusion test assay. The different dilutions of the test excipients in media were prepared in Falcon tubes and then distributed in a deep well plate using a multistepper. Each well received 1.2 ml and was subsequently inoculated with 120 μl of C. acnes bacteria suspension (strain C3 and K8). From the deep well plate 200 μl were transferred in each well of a clear 96 well replicate plate. The leftover was discarded. The plates were then incubated anaerobically for 3 days at 37° C. Following incubation, the test plates were visually examined and wells were scored for growth or complete growth inhibition to define the minimum inhibitory concentration.
(§3) These excipients are listed in the below table with their compatibility values for C. acnes strains C3 and K8. The compatibility values represent the MIC value of the listed ingredients with the tested C. acnes strains. At this concentration [% w/vol] the tested compound starts interfering with the growth of the tested strains. The compounds can be used in formulations at concentrations below this concentration.

[2] = system: C. acnes strain K8; assay: as above; details: % w/vol, incubated anaerobically 3 days at 37° C., scored for growth or complete growth inhibition
Protocol: as §1, §2, §3

[3] = system: freeze-dried C. acnes strains K8 and C3; assay: Reactivation assay of freeze dried bacteria in formulations (CFU count); details: statement in the description
Text: For this purpose, a freeze-dried powder of C. acnes strains K8 and C3 was produced and mixed with other ingredients as indicated below. Ingredients are listed in % (w/w). The formulations were provided in two pre-mixed compositions A and B that were finally mixed with each other. The following formulations were made: […]
The formulations are depicted in the form of a table in FIG. 1. For formulations 1-11, the CFU target value was 1×10^7. For formulations 12-15, the CFU target value was 1×10^6. A CFU count was performed directly after mixing the formulation to assess the effect of the prototype formulation on the revival and subsequent stability rate of the bacteria. Briefly, the formula component A (lyophilisate/oil suspension) and the formula component B (hydrogel/aqueous solution) are mixed together and well vortexed. Directly after mixing an aliquot is removed and transferred to 0.9% NaCl. Further dilutions are plated on COST agar plates and incubated anaerobically at 37° C. for 5 days.
Similar to the formulations tested in Example 2, another set of 11 prototype formulations was prepared with higher concentrations of the excipients of the invention. The formulations were tested as described in Example 2 for their impact on reactivation of freeze-dried C. acnes bacteria. As a control, a formulation containing the lyophilisate and low amounts of the excipients was prepared. […]

Row | Molecule | COMPATABILITY VALUE C3 [%] (MIC) [1] | COMPATABILITY VALUE K8 [%] (MIC) [2] | interference with viability and replication capability of the lyophilized or spray-dried bacteria [3]
1 | peg-40 hydrogenated castor oil | 1.00% | 1.00% | does not interfere
2 | CC(CO)CO [methylpropanediol] | 4.00% | 4.00% | –
3 | ethylhexyl cocoate | 10.00% | 10.00% | –
4 | O=C(O)CC(O)(CC(=O)O)C(=O)O [citric acid] | 0.33% | 0.08% | –
5 | CC(=O)Oc1c(C)c(C)c2c(c1C)CCC(C)(CCC[C@H](C)CCC[C@H](C)CCCC(C)C)O2 (stereo partly drawn) [tocopheryl acetate] | 1.00% | 1.00% | –
6 | CCCCCCC(O)CO (stereo not drawn) [caprylyl glycol] | 0.18% | 0.18% | –
7 | tocopherol | 1.50% | 1.50% | –
